Test [1] has as its system primary blast cells from AML patients. Briefly: Colony formation assay in methylcellulose containing medium, AML blasts. It counts as cell-based, human. Here is the method:
Primary blast cells from AML patients were tested for sensitivity to compound IIa as shown below. Frozen AML blasts from peripheral blood were obtained from AllCell LLC. (Emeryville, Calif.). Three frozen vials containing ˜1×10^7 PBMCs were purchased. Peripheral blood mononuclear cells (PBMCs) from three newly diagnosed AML patients with a high percentage of blasts (#06-188, 80%; #06-366, 88%; #06-503, 73%) were cultured for several weeks and treated with the KSP inhibitors. The vials were rapidly thawed and the cells were cultured in Iscove's DMEM supplemented with 10% FBS and the following cytokines all at 10 ng/ml: GM-CSF, G-CSF, SCF, IL-3, and IL-6 (all from R&D Systems). Three assays were performed on the cells as follows: • CellTiter-Glo® assay on AML blasts. PBMCs containing AML blasts were seeded in 96-well plates (5000/well) and treated with various concentrations of the compound IIa (10 pM to 10 nM) for 48 hours before cells survival was measured as described above. GI50 values (nM) were calculated as for cell lines. • Cell cycle analysis using propidium iodide staining. […] The DNA content of the fixed and stained cells was analyzed by the BD FACSCalibur flow cytometer using the CellQuest software. • Colony formation assay in methylcellulose containing medium. […] Colonies were counted under a microscope after 2 weeks. […]

In test [2] the test system is HCT-116. Description: CTG (CellTiter-Glo) screening assay. It counts as cell-based. Conditions: Homo sapiens. The source says: Identification of tumor types that are the most sensitive to the KSP inhibitors of the present invention can be accomplished using an unbiased approach that uses several cell-based assays. The assays chosen were as follows: • CellTiter-Glo®. This is an assay designed to measure ATP concentration in a cell culture, and can be correlated to cell number. Briefly CellTiter-Glo® (Promega Corporation) is a homogeneous method using the single CellTiter-Glo® reagent to detect ATP wherein ATP in the assay drives the activity of a thermostable luciferase to create a luminescent signal which can then be measured and correlated with the number of viable cells. Briefly, for adherent cells, 1,000 to 5,000 cells/well were plated in 96-well plates (100 μl/well) and let to adhere for 24 hours before being treated with drug. For non-adherent cells, 1,000 to 10,000 cells/well were plated in 96-well plates (100 μl/well) and immediately treated with drug. Drug dilutions were prepared in DMSO at 1000 times the final concentration. These dilutions were then diluted 1/100 in growth media before being added to the cells (11 μl/well) to achieve the desired final concentration. […] Protocol for a 72 hour cell proliferation assay: The 72 hour assay was performed the same way as the 48 hour assay except for the following modifications: For adherent cells, 500 to 5,000 cells/well were plated in 96-well plates (90 μl/well cell growth media) and left to adhere for 24 hours before being treated with drug. For non-adherent cells, 1,000 to 10,000 cells/well were plated in 96-well plates (90 μl/well cell growth media) and immediately treated with drug. Data values presented represent the concentration of test compound required for a 50% reduction in growth. • LDH release. […] The enzymatic reaction is coupled to a chemical reaction that uses a tetrazolium salt to form a formazan that is red and can be detected by its absorbance at 490 nm. […]

For `CC(C)(C)[C@H](c1nc(-c2cc(F)ccc2F)cn1Cc1ccccc1)N(CC[C@H](N)CF)C(=O)CO` [Compound IIa], the colonies entry in test [1] (0.5 nM and above, samples #06-366, #06-188, #06-503, 2 weeks) was “absent”. The number of colonies entry in test [1] (sample #06-366, 0.2 nM, 2 weeks) is recorded as “markedly reduced”. In addition, the GI50 – broadly, the concentration that inhibits growth by half – is greater than 5000 pM in test [2] (HCT-116, 24 h); 110 pM in test [2] (HCT-116, 48 h); 130 pM in test [2] (HCT-116, 72 h).

The record behind these values is US8252832B2, “Kinesin inhibitors as cancer therapeutics” (Novartis AG, priority 2007, dated 2012).
